Molecules are shown by their SMILES.

What all share (assay): In vitro antibacterial activity, agar dilution MIC
Common to all, as to format: cell-based

For assay [1], the system named is Streptococcus pyogenes PIU 2548. The conditions noted are these: code NN: Streptococcus pyogenes PIU 2548; BHI agar, 35-37° C., 20 to 24 hours; unit assumed. On the procedure: (§1) Representative compounds of the present invention were assayed in vitro for antibacterial activity as follows: Twelve petri dishes containing successive aqueous dilutions of the test compound mixed with 10 mL of sterilized Brain Heart Infusion (BHI) agar (Difco 0418-01-5) were prepared. Each plate was inoculated with 1:100 (or 1:10 for slow-growing strains, such as Micrococcus and Streptococcus) dilutions of up to 32 different microorganisms, using a Steers replicator block. The inoculated plates were incubated at 35-37° C. for 20 to 24 hours. In addition, a control plate, using BHI agar containing no test compound, was prepared and incubated at the beginning and end of each test.
(§2) An additional plate containing a compound having known susceptibility patterns for the organisms being tested and belonging to the same antibiotic class as the test compound was also prepared and incubated as a further control, as well as to provide test-to-test comparability. Erythromycin A was used for this purpose.
(§3) After incubation, each plate was visually inspected. The minimum inhibitory concentration (MIC) was defined as the lowest concentration of drug yielding no growth, a slight haze, or sparsely isolated colonies on the inoculum spot as compared to the growth control.

For assay [2], the system named is Nocardia Asteroides ATCC 99700. The following applies: code VV: Nocardia Asteroides ATCC 99700; BHI agar, 35-37° C., 20 to 24 hours; unit assumed. As to the method: as §1, §2, §3
For assay [3], the system named is Streptococcus Pneumonia ATCC 6303. The following applies: code XX: Streptococcus Pneumonia ATCC 6303; BHI agar, 35-37° C., 20 to 24 hours; unit assumed. As to the method:
as §1, §2, §3

For assay [4], the system named is Streptococcus agalactiae CMX 508. The conditions noted are these: code KK: Streptococcus agalactiae CMX 508; BHI agar, 35-37° C., 20 to 24 hours; unit assumed. As to the method: as §1, §2, §3
Assay [5] has as its system Escherichiacoli SS. The following applies: code RR: Escherichiacoli SS; BHI agar, 35-37° C., 20 to 24 hours; unit assumed. On the procedure: as §1, §2, §3
Assay [6] has as its system Staphylococcus aureus A-5278. The following applies: code CC: Staphylococcus aureus A-5278; BHI agar, 35-37° C., 20 to 24 hours; unit assumed. As to the method: as §1, §2, §3
Assay [7] relates to Streptococcus pyogenes 930. The following applies: code MM: Streptococcus pyogenes 930; BHI agar, 35-37° C., 20 to 24 hours; unit assumed. On the procedure:
as §1, §2, §3

For assay [8], the system named is Haemophilislnfluenzae DILL AMP R. The conditions noted are these: code WW: Haemophilislnfluenzae DILL AMP R; BHI agar, 35-37° C., 20 to 24 hours; unit assumed. As to the method:
as §1, §2, §3

In assay [9] the test system is Streptococcus bovis A-5169. The following applies: code JJ: Streptococcus bovis A-5169; BHI agar, 35-37° C., 20 to 24 hours; unit assumed. On the procedure:
as §1, §2, §3

Assay [10] has as its system Streptococcus pyogenes EES61. The conditions noted are these: code LL: Streptococcus pyogenes EES61; BHI agar, 35-37° C., 20 to 24 hours; unit assumed. As to the method: as §1, §2, §3
Assay [11] has as its system Escherichiacoli JUHL. The following applies: code QQ: Escherichiacoli JUHL; BHI agar, 35-37° C., 20 to 24 hours; unit assumed. On the procedure:
as §1, §2, §3

Assay [12] relates to Streptococcus Pneumonia GYR 1171. The following applies: code YY: Streptococcus Pneumonia GYR 1171; BHI agar, 35-37° C., 20 to 24 hours; unit assumed. On the procedure: as §1, §2, §3
Assay [13] concerns Staphylococcus aureus ATCC 6538P. The following applies: code AA: Staphylococcus aureus ATCC 6538P; BHI agar, 35-37° C., 20 to 24 hours; unit assumed. On the procedure: as §1, §2, §3
Assay [14] deals with Staphylococcus epidermidis 3519. The conditions noted are these: code HH: Staphylococcus epidermidis 3519; BHI agar, 35-37° C., 20 to 24 hours; unit assumed. As to the method: as §1, §2, §3
Assay [15] has as its system Staphylococcus aureus A-5177. The conditions noted are these: code BB: Staphylococcus aureus A-5177; BHI agar, 35-37° C., 20 to 24 hours; unit assumed. As to the method:
as §1, §2, §3

Assay [16] concerns Mycobacterium smegmatis ATCC 114. The following applies: code UU: Mycobacterium smegmatis ATCC 114; BHI agar, 35-37° C., 20 to 24 hours; unit assumed. As to the method:
as §1, §2, §3

Assay [17] relates to Staphylococcus aureus 1775. The conditions noted are these: code GG: Staphylococcus aureus 1775; BHI agar, 35-37° C., 20 to 24 hours; unit assumed. As to the method:
as §1, §2, §3

The subject of assay [18] is Micrococcusluteus ATCC 4698. The following applies: code PP: Micrococcusluteus ATCC 4698; BHI agar, 35-37° C., 20 to 24 hours; unit assumed. On the procedure:
as §1, §2, §3

Assay [19] concerns Staphylococcus aureus NCTC 10649M. The following applies: code EE: Staphylococcus aureus NCTC 10649M; BHI agar, 35-37° C., 20 to 24 hours; unit assumed. On the procedure: as §1, §2, §3
For assay [20], the system named is Candida albicans CCH 442. The following applies: code TT: Candida albicans CCH 442; BHI agar, 35-37° C., 20 to 24 hours; unit assumed. On the procedure:
as §1, §2, §3

For assay [21], the system named is Streptococcus Pneumonia 5649. The conditions noted are these: code ZA: Streptococcus Pneumonia 5649; BHI agar, 35-37° C., 20 to 24 hours; unit assumed. As to the method:
as §1, §2, §3

Assay [22] deals with Streptococcus Pneumonia 5979. The conditions noted are these: code ZZ: Streptococcus Pneumonia 5979; BHI agar, 35-37° C., 20 to 24 hours; unit assumed. As to the method:
as §1
An additional plate containing a compound having known susceptibility patterns for the organisms being tested and belonging to the same antibiotic class as the test compound was also prepared and incubated as a further control, as well as to provide test-to-test comparability.
as §3

In the case of `CCC1OC(=O)C(C)C(=O)C(C)C(OC2OC(C)CC(N(C)C)C2O)C(C)(OCC=Cc2cnc3ccccc3c2)CC(C)CN(C)C(C)C(O)C1(C)O` (stereo not drawn) [Example 5, Compound of formula (II): R^1 is —CH2CH═CH-(3-quinolinyl), R^2 and R^3 together are oxo, R^4 is hydrogen, R^5 is hydrogen, R^6 is methyl, R^8 is hydrogen], the Antibacterial Activity (MIC) is 6.2 µg/mL in assay [1]; 0.1 µg/mL in [2]; 0.06 µg/mL in assay [3]; 0.05 µg/mL in [4]; 0.78 µg/mL in [5]; more than 100 µg/mL in assay [6]. Besides, the Antibacterial Activity (MIC) in assay [7] is more than 100 µg/mL; in [8], 4 µg/mL; in assay [9], 0.02 µg/mL; in [10] it was 0.05 µg/mL; in assay [11], 50 µg/mL; in assay [12], 0.03 µg/mL. For the same compound, the Antibacterial Activity (MIC) is 0.2 µg/mL in assay [13]; 0.2 µg/mL in [14]; 12.5 µg/mL in [15]; 6.2 µg/mL in assay [16]; more than 100 µg/mL in assay [17]; 0.39 µg/mL in [18]. Also, the Antibacterial Activity (MIC) was 0.39 µg/mL in [19], more than 100 µg/mL in assay [20], 8 µg/mL in [21] and more than 128 µg/mL in assay [22].
Take `CCC1OC(=O)C(C)C(=O)C(C)C(OC2OC(C)CC(N(C)C)C2O)C(C)(OCC=Cc2cnc3ccccc3c2)CC(C)CN(C)C(C)C2OC(=O)OC12C` (stereo not drawn) [Example 6, Compound of formula (II): R^1 is —CH2CH═CH-(3-quinolinyl), R^2 and R^3 together are oxo, R^4 and R^5 together are —C(O)—, R^6 is methyl, R^8 is hydrogen]: the Antibacterial Activity (MIC) in [1] was 6.2 µg/mL; in assay [2], 0.1 µg/mL; in assay [3] it was 0.06 µg/mL; in assay [4] it was 0.05 µg/mL; in assay [5] it was 0.78 µg/mL; in assay [6] it was more than 100 µg/mL. The Antibacterial Activity (MIC) in [7] is more than 100 µg/mL; in assay [8] it was 4 µg/mL; in assay [9] it was 0.02 µg/mL; in assay [10], 0.05 µg/mL; in assay [11], 50 µg/mL; in assay [12], 0.03 µg/mL. In addition, the Antibacterial Activity (MIC) in [13] was 0.2 µg/mL; in [14], 0.2 µg/mL; in [15], 12.5 µg/mL; in [16], 6.2 µg/mL; in [17] it was more than 100 µg/mL; in assay [18], 0.39 µg/mL. In addition, the Antibacterial Activity (MIC) in assay [19] was 0.39 µg/mL; in [20], more than 100 µg/mL; in assay [21], 8 µg/mL; in assay [22] it was more than 128 µg/mL.
As for `CCC1OC(=O)C(C)C(OC2CC(C)(OC)C(O)C(C)O2)C(C)C(OC2OC(C)CC(N(C)C)C2O)C(C)(OCC=Cc2cnc3ccccc3c2)CC(C)CN(C)C(C)C(O)C1(C)O` (stereo not drawn) [Example 7, Compound of formula (I): R^1 is —CH2CH═CH-(3-quinolinyl), R^4 is hydrogen, R^5 is hydrogen, R^6 is methyl, R^7 is hydrogen, R^8 is hydrogen], the Antibacterial Activity (MIC) in assay [1] is 6.2 µg/mL; in assay [2] it was 0.05 µg/mL; in [3], 0.12 µg/mL; in [4], 0.1 µg/mL; in assay [5], 0.39 µg/mL; in [6] it was more than 100 µg/mL. For the same compound, the Antibacterial Activity (MIC) is more than 100 µg/mL in [7]; 8 µg/mL in [8]; 0.1 µg/mL in [9]; 0.05 µg/mL in [10]; 100 µg/mL in assay [11]; 0.12 µg/mL in assay [12]. Also, the Antibacterial Activity (MIC) in assay [13] is 0.1 µg/mL; in assay [14], 0.2 µg/mL; in assay [15] it was 3.1 µg/mL; in assay [16] it was 6.2 µg/mL; in assay [17], more than 100 µg/mL; in assay [18], 0.2 µg/mL. Besides, the Antibacterial Activity (MIC) in [19] was 0.39 µg/mL; in [20], more than 100 µg/mL; in [21], 16 µg/mL; in assay [22], more than 128 µg/mL.

The record behind these values is patent US6764996B1, “9a-azalides with antibacterial activity” (Abbott Laboratories, priority 1999, dated 2004).
